From PubChem BioAssay (NCI) come the findings set out here.

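Five compound concentrations were applied to cells in 96-well plates for 48 hours; endpoints were derived by simple linear interpolation of the resulting dose-response curve. TGI is the concentration that stops growth completely.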

Holding throughout (test): NCI-60 cell line screen, 48 h
The subject of test [1] is DU-145 prostate.
The subject of test [2] is HCC-2998 colon.
In test [3] the test system is M14 melanoma.
In test [4] the test system is MDA-N.
Test [5] has as its system OVCAR-3 ovarian.
In test [6] the test system is OVCAR-5 ovarian.
Test [7] deals with SK-MEL-2 melanoma.
In test [8] the test system is SK-OV-3 ovarian.
Test [9] relates to SN12C renal.

For the compound `O=C(CCc1cccc(O)c1)NCCc1cccc(O)c1`, the TGI in test [1], in test [2], in [3], in test [4], in test [5] and in [6] was greater than 100 µM in each case. The TGI in test [7], in [8] and in test [9] was greater than 100 µM each time.
For `Brc1ccc2c(-c3nc(-c4c[nH]c5ccccc45)cs3)c[nH]c2c1`, the TGI in test [1], in test [2], in test [3], in test [4], in test [5] and in test [6] was greater than 100 µM each time. For the same compound, the TGI in test [7] was greater than 84.3 µM; in [8], greater than 100 µM; in test [9] it was greater than 100 µM.
Turning to `Cc1c(-c2ccccc2)c(C#N)c2nnn(-c3ccccc3)c(=O)n12`, the TGI in [1], in [2], in test [3], in [4], in test [5] and in test [6] was greater than 100 µM in each case. In addition, the TGI in [7], in test [8] and in test [9] was greater than 100 µM each time.
As for `O=C(NCC1Nc2ccncc2S(=O)(=O)N1)c1ccc(Br)cc1` (stereo not given), the TGI is greater than 100 µM in test [1]; greater than 100 µM in test [2]; 90.8 µM in [3]; 58.6 µM in test [4]; greater than 100 µM in [5]; greater than 100 µM in test [6]. The TGI in [7] was 57.4 µM; in [8], greater than 100 µM; in test [9], greater than 100 µM.
For `CN(NC(=O)/C(=C/c1ccc(O)cc1)NC(=O)c1ccccc1)c1ccnc2cc(Cl)ccc12`, the TGI in test [1] is 56.9 µM; in test [2], 33.3 µM; in [3], 36.6 µM; in [4] it was 32.2 µM; in [5], 31.2 µM; in test [6] it was 50.5 µM. Moreover, the TGI in test [7] is 44.4 µM; in test [8], 36.6 µM; in test [9], 48.6 µM.
For the compound `Cc1nc2c(cc1C(=O)NN)c(=O)n(C)c(=O)n2C`, the TGI in test [1], in test [2], in test [3], in test [4], in test [5] and in [6] was greater than 100 µM in each case. The TGI in test [7], in test [8] and in test [9] was greater than 100 µM in each case.
On to `O=C1Cc2c(-c3ccc(Cl)cc3)cc(-c3ccccc3)nc2-c2ccccc2N1`, for which the TGI in [1] is greater than 61.4 µM; in test [2], 24.2 µM; in [3], greater than 100 µM; in [4], 55.8 µM; in [5] it was 27.1 µM; in test [6], greater than 81 µM. Besides, the TGI came out at 97.7 µM in test [7], 18.8 µM in [8] and 25 µM in test [9].
Consider `COc1cc2c(cc1OCCCC(=O)Nc1cc(C(=O)Nc3cc(C(=O)Nc4cc(C(=O)NCCCN(C)C)n(C)c4)n(C)c3)n(C)c1)N=C[C@@H]1CCCN1C2=O`, for which the TGI in [1] was 10.2 µM; in [2], 28.2 µM; in test [3] it was 3.11 µM; in test [4], 3.8 µM; in test [5] it was 3.62 µM; in test [6], 9.38 µM. Moreover, the results for the TGI in test [7], in test [8] and in test [9] were 6.79 µM, 28.4 µM and 2.63 µM, respectively.
For `CCCCC1(N=[N+]=[N-])C(=O)c2cccc3c2N(CCC3)C1=O` (stereo not given), the TGI in [1], in test [2], in test [3], in test [4], in test [5] and in test [6] was greater than 100 µM throughout. The TGI in test [7], in test [8] and in test [9] was greater than 100 µM in each case.
With `CN(Cc1c2ccccc2cc2ccccc12)S(=O)(=O)c1ccc(-c2c3nc(c(-c4ccc(S(=O)(=O)N(C)Cc5c6ccccc6cc6ccccc56)cc4)c4ccc([nH]4)c(-c4ccc(S(=O)(=O)N(C)Cc5c6ccccc6cc6ccccc56)cc4)c4nc(c(-c5ccc(S(=O)(=O)N(C)Cc6c7ccccc7cc7ccccc67)cc5)c5ccc2[nH]5)C=C4)C=C3)cc1`, the TGI in [1], in test [2], in test [3], in test [4], in [5] and in test [6] was greater than 100 µM each time. Besides, the TGI in [7], in test [8] and in test [9] was greater than 100 µM each time.
On to `Cc1cc(S(=O)(=O)Nc2nc3ccsc3c(=O)n2N)c(S)cc1Cl`, for which the TGI in [1], in test [2], in [3], in test [4], in [5] and in [6] was greater than 100 µM throughout. Besides, the TGI in [7], in [8] and in test [9] was greater than 100 µM each time.
Regarding `Cc1cc(NS(=O)(=O)c2ccc(NC(=O)c3ccc4nc5ccccc5c(Nc5ccc(S(=O)(=O)N=C(N)N)cc5)c4c3)cc2)no1`, the TGI amounted to 32.3 µM in test [1]; 30.8 µM in [2]; 34.6 µM in test [3]; 41.4 µM in test [4]; 34.6 µM in test [5]; 31.8 µM in [6]. The TGI amounted to 33.4 µM in test [7], 41.6 µM in [8] and 34.4 µM in test [9].
In the case of `O=[N+]([O-])c1ccc2c(c1)nc(Cc1ccccc1)n2C[C@@H]1CCCN2CCCCC12` (stereo not given in full), the TGI in test [1] is greater than 100 µM; in [2], 33.2 µM; in test [3] it was 33.1 µM; in [4] it was 38.6 µM; in test [5] it was greater than 100 µM; in test [6] it was greater than 100 µM. The results for the TGI in test [7], in [8] and in test [9] were 44.8 µM, greater than 100 µM and greater than 100 µM, respectively.
As for `CCOC(=O)C1=CN=C2C(=O)N(c3ccccc3)N(C)C2(C)C1=N` (stereo not given), the TGI in test [1], in test [2], in test [3], in [4], in test [5] and in test [6] was greater than 100 µM throughout. The TGI in test [7], in test [8] and in [9] was greater than 100 µM each time.
As for `CC(C)CC(=O)NC(Nc1ccc(S(=O)(=O)Nc2ncccn2)cc1)(C(F)(F)F)C(F)(F)F`, the TGI in test [1], in test [2], in test [3], in test [4], in test [5] and in [6] was greater than 100 µM throughout. For the same compound, the TGI in test [7], in test [8] and in test [9] was greater than 100 µM throughout.
